From paper PMC5442318, “Hundreds of dual-stage antimalarial molecules discovered by a functional gametocyte screen” (Nature Communications, 2017)
Read-outs that look alike come from different tables or passages of the source.

Assays:
[1] = system: P. falciparum stage V female gametocytes; experiment: P. falciparum female gametocyte activation assay (Pf FGAA), 24 h or 48 h preincubation, Pfs25 expression readout; type: cell-based, Plasmodium falciparum NF54; details: for Pf FGAA classification: SLOW / FAST / GAMETE from activity at 48h, 24h, 0h incubation
Summary of the method: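 Female activation, triggered by xanthurenic acid and cooling, was scored by imaging Cy3-labelled anti-Pfs25 female gametes after 24 h at 26 °C. Beforehand, purified NF54 stage V gametocytes had been incubated with compound for either 24 h or 48 h (37 °C, 3% O2). Values are pIC50 from full-curve regression.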

[2] = system: P. falciparum female gametes; experiment: Pf FGAA with compounds added 30 min after triggering gametocyte activation (gamete-targeting); type: cell-based, Plasmodium falciparum NF54; details: 0h incubation time
[3] = system: P. falciparum stages IV–V gametocytes; experiment: Gametocytocidal ATP-depletion assay (gametocyte ATP bioluminescence); type: cell-based, Plasmodium falciparum
Summary of the method: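 Read-out is luciferase luminescence of parasite ATP (BacTiter-Glo), standing in for viability. Double-purified mature stage IV–V gametocytes, 12,500 per well, were exposed 48 h at 37 °C in low-O2 gas; screening concentration 2 μM.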

[4] = system: HepG2 cells; experiment: HepG2 cytotoxicity assay; type: cell-based; details: mean
Summary of the method: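 Cell viability is measured by CellTiter-Glo luminescence. Signal is developed at room temperature and read 10 min after adding the reagent, with plates and reagent first equilibrated for 30 min.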

[5] = system: Plasmodium berghei asexual blood stages; experiment: In vivo antimalarial therapeutic efficacy, P. berghei murine model; set-up: species or system CD1 mice
Method: Two out of the six compounds progressed to SMFA, TCMDC-123767 (cluster 30) and TCMDC-141154 (cluster 4), were evaluated in vivo in the Plasmodium berghei murine model. Selection criteria was based on the compound potencies in both asexual stages and gametocytes in the Pf FGAA, as well as on their transmission-blocking activity observed in the SMFA (Table 1). Owing to compound availability, TCMDC-141154 had to be replaced by a close analogue from cluster 4: TCMDC-140549 (Supplementary Data 3). Compounds were tested at 50 mg kg^−1 single dose 2-day oral treatment and efficacy was measured as a reduction of asexual blood stages parasitaemia greater than 40% compared with the vehicle-treated mice.
Pathogen-free CD1 mice (Hsd:ICR) were obtained from Harlan Interfauna Iberica (Barcelona, Spain). Eight weeks old female CD-1 mice were infected intravenously with 10^7 infected erythrocytes (day 0). Dosing solutions were prepared in water containing 5% DMSO/20% Captisol, at a target dose of 50 mg kg^−1. Mice received two oral doses once a day according to their body weight (20 ml kg^−1) starting at day 2 after infection. Control mice received the same treatment schedule with the vehicle used for the compound preparation. Samples from mice peripheral blood were taken before starting treatment and 24 h after finishing the dosing, to measure parasitaemia by flow cytometry, using the YOYO-1 staining, to assess the reduction of parasitaemia compared with the vehicle-treated mice.

[6] = Artificial membrane permeability assay (AMPA); type: in vitro ADME; details: 10 μM, pH 7.05, 3 h
Method: It is a 96-well plate-based assay that measures the speed of permeation of a compound (at 10 μM concentration) through a phospholipid membrane, consisting in 1.8% egg L-a-phosphatidylcholine (830051, Avanti Polar Lipids) and 1% cholesterol (C8667, Sigma) dissolved in n-decane (D0011, TCI American). Phosphate buffer (50 mM Na2HPO4 with 0.5% 2-hydroxypropyl-b-cyclodextrin), pH 7.05, is added to the top and bottom of the plate (S5EJ046I08, MilliPore Corp.). The lipids are allowed to form bilayers across the small holes in the filter and compound concentration is measured 3 h later in both donor and the acceptor compartments by HPLC (Agilent 1100 LC). Permeability (P) (nm s^−1) is calculated using the following formulas:
where X=VD/VR; CR and CD are final concentrations in receiver and donor side, respectively; VR and VD are volumes in receiver and donor compartment, respectively; A is the area (cm^2) and t is the incubation time (s). The considered cut-off values are as follows: High: P>200 nm s^−1; Medium: 10 nm s^−1<P<200 nm s^−1; Low: P<10 nm s^−1.

[7] = system: P. falciparum asexual blood stages; details: cited from earlier work; for IC50: read-out: Pf Asexual blood stages XC50
[8] = 24h incubation time, read-out: Pf FGAA IC50 (µM) 24h
[9] = TCAMS data, ref 1 (Gamo, F. J. et al., Nature 465, 305-310, 2010)
[10] = mean, P. falciparum female gametocyte activation assay, read-out: Gametocytes mean Pf FGAA IC50
[11] = TCAMS asexual blood stage data, ref 1 (Gamo, F. J. et al., Nature 465, 305-310, 2010)

IC50 [1, 8] [µM] | IC50 ([1]; mean, read-out: Gametocytes mean Pf FGAA IC50) [µM] | IC50 [2] [µM] | permeability through artificial membranes [6] [×10⁻⁶ cm/s] | SMILES | Pf FGAA classification [1] | Gametocytes mean ATP inhibition at 2µM (%) [3] [%] | HepG2 cells mean TOX50 [4] [µM] | reduction of asexual blood stages parasitaemia (threshold 40% vs vehicle) ([5]; 50 mg kg^−1 single dose 2-day oral treatment, mice) | ED50 ([5]; single dose 2-day treatment, oral, P. berghei mice) [mg/kg] | IC50 ([7]; TCAMS data, ref 1 (Gamo et al., 2010)) [µM] | Pf Asexual stages XC50 [7, 9] [µM] | IC50 [1, 10] [µM] | Gametocytes mean ATP inhibition at 2µM [3] [%] | HepG2 cells mean TOX50 ([4]; HepG2 cells) [µM] | IC50 [7, 11] [µM]
3.56 | 1.01 | 0.51 | 17 | CC(C)(C)CNCC(C)(C)c1nc(-c2ccc(Cl)c(O)c2)c(-c2ccncc2)[nH]1.Cl [TCMDC-140549] | GAMETE | -11.46 | 11.63 | not reduced above the threshold | > 50 | 0.6 | 0.60 | – | – | – | –
4.97 | – | 6.42 | – | CCOc1ccc2c(=NN=Cc3cc(OC)c(OC)cc3OC)cc(C)[nH]c2c1 [TCMDC-142207] | SLOW | – | – | – | – | – | 0.17 | 1.22 | -8.55 | 12.17 | 1
1.58 | – | > 20 | – | CN(C)CCN1CCN(CCCN2c3ccccc3Sc3ccc(C(F)(F)F)cc32)CC1.Cl [TCMDC-142257] | FAST | – | – | – | – | – | 0.76 | 5.25 | 23.41 | 77.62 | 0.76

SMILES | IC50 [1, 8] [µM] | IC50 ([1]; mean, read-out: Gametocytes mean Pf FGAA IC50) [µM] | IC50 [2] [µM] | permeability through artificial membranes [6] [×10⁻⁶ cm/s] | Pf FGAA classification [1] | Gametocytes mean ATP inhibition at 2µM (%) [3] [%] | HepG2 cells mean TOX50 [4] [µM] | reduction of asexual blood stages parasitaemia (threshold 40% vs vehicle) ([5]; 50 mg kg^−1 single dose 2-day oral treatment, mice) | ED50 ([5]; single dose 2-day treatment, oral, P. berghei mice) [mg/kg] | IC50 ([7]; TCAMS data, ref 1 (Gamo et al., 2010)) [µM] | Pf Asexual stages XC50 [7, 9] [µM] | IC50 [1, 10] [µM] | Gametocytes mean ATP inhibition at 2µM [3] [%] | HepG2 cells mean TOX50 ([4]; HepG2 cells) [µM] | IC50 [7, 11] [µM]
O=C(CCC1CCCC1)N(Cc1ccc(-c2ccc(CNCCc3ccccc3)cc2)cc1)C1CCCNC1.O=C(O)C(F)(F)F (stereo not shown) [TCMDC-141444] | 6.85 | – | 15.3 | – | SLOW | – | – | – | – | – | 1.22 | 1.98 | 26.17 | 5.19 | 1.22
CN1CCN(CCCNc2ncc3c(-c4ccc(NC(=O)Nc5cc(C(F)(F)F)ccc5F)c(F)c4)nn(C)c3n2)CC1.O=C(O)C(F)(F)F [TCMDC-141611] | 11.1 | – | 11.3 | – | SLOW | – | – | – | – | – | 0.86 | 0.87 | -15.14 | 4.90 | 0.86
